Drawing on US11524966B1 (Valo Early Discovery, Inc., priority 2017, dated 2022), this text covers IC50 for eleven compounds.

This test deals with T1, USP25 (USP25-His6, Boston Biochem E-546) (Homo sapiens, UniProt Q9UHP3).
T1 construct: His6; purchased Boston Biochem E-546
T1 sequence (Q9UHP3 1-1055): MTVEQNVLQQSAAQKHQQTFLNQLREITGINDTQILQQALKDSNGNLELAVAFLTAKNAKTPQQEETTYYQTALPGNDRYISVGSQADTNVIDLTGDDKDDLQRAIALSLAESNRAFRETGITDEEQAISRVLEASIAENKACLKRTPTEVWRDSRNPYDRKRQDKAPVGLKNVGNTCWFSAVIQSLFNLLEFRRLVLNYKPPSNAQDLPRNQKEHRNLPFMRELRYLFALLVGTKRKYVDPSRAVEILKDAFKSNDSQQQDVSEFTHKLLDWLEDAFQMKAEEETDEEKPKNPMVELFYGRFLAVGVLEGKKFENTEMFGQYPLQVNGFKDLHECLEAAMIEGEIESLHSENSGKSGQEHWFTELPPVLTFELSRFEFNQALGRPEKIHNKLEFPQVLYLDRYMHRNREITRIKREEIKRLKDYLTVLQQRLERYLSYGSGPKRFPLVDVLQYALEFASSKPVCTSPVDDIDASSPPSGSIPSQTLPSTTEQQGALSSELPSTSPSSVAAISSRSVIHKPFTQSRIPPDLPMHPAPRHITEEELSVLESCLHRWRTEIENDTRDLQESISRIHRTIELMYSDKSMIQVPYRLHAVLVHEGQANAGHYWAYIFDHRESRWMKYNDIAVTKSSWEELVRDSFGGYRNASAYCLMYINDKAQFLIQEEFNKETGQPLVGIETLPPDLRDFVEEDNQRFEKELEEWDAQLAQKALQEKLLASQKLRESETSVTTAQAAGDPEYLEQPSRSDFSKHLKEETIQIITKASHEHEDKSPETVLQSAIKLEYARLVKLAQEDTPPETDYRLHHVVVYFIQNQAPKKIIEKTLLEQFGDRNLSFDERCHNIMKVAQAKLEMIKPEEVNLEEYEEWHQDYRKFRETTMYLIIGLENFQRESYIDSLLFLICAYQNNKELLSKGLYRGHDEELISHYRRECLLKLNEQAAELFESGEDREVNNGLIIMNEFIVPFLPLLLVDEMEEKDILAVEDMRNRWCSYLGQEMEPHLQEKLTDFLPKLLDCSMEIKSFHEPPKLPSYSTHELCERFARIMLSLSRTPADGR
Kind of test: Ubiquitin-Rhodamine 110 Assay for USP25 Activity, Example A-2. It counts as biochemical. Particulars: read-out: USP25 A-2 IC50 range. In a few lines:
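Fluorescence (ex 485, em 535 nm) of cleaved ubiquitin-rhodamine 110 (25 nM, below Km) gave IC50 via 4-parameter logistic fit. Reaction: 45 min, room temperature, citric acid stop, after 30 min compound preincubation with 75 pM USP25-His6 in 20 mM Tris pH 8.0, 3 mM BME, 0.03% BGG, 0.01% Triton X-100; top dose 25 μM.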

The mark [1] stands for this setting: Ubiquitin-Rhodamine 110 assay, format Example A-2.

Read-outs that look alike come from different tables or passages of the source. Bounds are passed on as bounds.

By IC50 is commonly meant the midpoint of a concentration-inhibition curve.

Turning to `Cc1ccc2c(N)c(C(=O)N[C@H]3COc4cc(N5CCN[C@@H](C)[C@H]5C)ccc4C3)sc2n1` (single isomer, unassigned) [Example 1-7], for the setting “Ub-Rh110 assay, Example A-2”, the IC50 lay in the range of 1 to 50 nM.

With `Cc1nc2sc(C(=O)N[C@H]3CCc4cc(N5CCNCC5)ccc4C3)c(N)c2s1` (single isomer, unassigned) [Example 11-33], the IC50 under setting [1] is above 2000 nM. Still for that read-out and setting: for `Cc1nc2sc(C(=O)N[C@@H]3CCc4cc(N5CC6CCC(C5)N6)ccc4C3)c(N)c2s1` (single isomer, unassigned) [Example 12-2] the value was 200 to 2000 nM.

For `Cc1ccc2c(N)c(C(=O)N[C@@H]3CCc4c(ccc(N5CC6CCC(C5)N6)c4C#N)C3)sc2n1` (single isomer, unassigned) [Example 14-1], the half-inhibitory concentration (IC50) under setting [1] was in the range of 50 to 200 nM. With `Cc1ccc2c(N)c(C(=O)N[C@H]3CCc4c(ccc(N5CC6CCC(C5)N6)c4C#N)C3)sc2n1` (single isomer, unassigned) [Example 14-2], the half-maximal inhibitory concentration (IC50) under setting [1] is above 2000 nM.

For the compound `Cc1ccc2c(N)c(C(=O)N[C@@H]3CCc4cc(N5CC6CCC(C5)N6)c(C#N)cc4C3)sc2n1` (single isomer, unassigned) [Example 14-3], the IC50 under setting [1] is above 2000 nM. `Cc1ccc2c(N)c(C(=O)N[C@H]3CCc4cc(N5CC6CCC(C5)N6)c(C#N)cc4C3)sc2n1` (single isomer, unassigned) [Example 14-4]: under setting [1], the IC50 lay within 50 to 200 nM. For the compound `Cc1cnc2c(N)c(C(=O)N[C@@H]3CCc4c(ccc(N5CC6CCC(C5)N6)c4C#N)C3)sc2n1` (single isomer, unassigned) [Example 14-5], the IC50 under setting [1] lay in the range of 50 to 200 nM. On the same count and under the same terms, for `Cc1cnc2c(N)c(C(=O)N[C@H]3CCc4c(ccc(N5CC6CCC(C5)N6)c4C#N)C3)sc2n1` (single isomer, unassigned) [Example 14-6] the value was above 2000 nM; for `Cc1cnc2c(N)c(C(=O)N[C@@H]3CCc4cc(N5CC6CCC(C5)N6)c(C#N)cc4C3)sc2n1` (single isomer, unassigned) [Example 14-7], above 2000 nM. Consider `Cc1cnc2c(N)c(C(=O)N[C@H]3CCc4cc(N5CC6CCC(C5)N6)c(C#N)cc4C3)sc2n1` (single isomer, unassigned) [Example 14-8], for which the IC50 under setting [1] lay within 50 to 200 nM.
